From ChEMBL document CHEMBL1150887, “Isolation, identification, and antioxidant activity of three stilbene glucosides newly extracted from vitis vinifera cell cultures” (J Nat Prod, 1998)

Experiments:
[1] = Antioxidant activity against cupric ion-induced lipid peroxidation in human LDL by TBA assay; format: functional
[2] = test system: Radical scavenging activity; assay: Antioxidant activity assessed as DPPH radical scavenging activity; format: functional

IC50 [1] | IC50 [2] | SMILES
3 µM | 30.2 µM | OC[C@H]1O[C@@H](Oc2cc(O)cc(/C=C/c3ccc(O)c(O)c3)c2)[C@H](O)[C@@H](O)[C@@H]1O
18 µM | 95 µM | Oc1ccc(/C=C\c2cc(O)cc(O)c2)cc1 [CIS-RESVERATROL]
1.8 µM | 28 µM | Oc1cc(O)cc(/C=C/c2ccc(O)c(O)c2)c1 [PICEATANNOL]
19.1 µM | 198 µM | OC[C@H]1O[C@@H](Oc2cc(O)cc(/C=C/c3ccc(O)cc3)c2)[C@H](O)[C@@H](O)[C@@H]1O [PICEID]
2.4 µM | 72 µM | Oc1ccc(/C=C/c2cc(O)cc(O)c2)cc1 [RESVERATROL]
4.7 µM | 10.1 µM | Cc1c(C)c2c(c(C)c1O)CCC(C)(C(=O)O)O2 (stereo not given) [TROLOX]
2.5 µM | 29 µM | OC[C@H]1O[C@@H](Oc2cc(O)cc(/C=C\c3ccc(O)c(O)c3)c2)[C@H](O)[C@@H](O)[C@@H]1O [Z-ASTRINGIN]
16.8 µM | 142 µM | OC[C@H]1O[C@@H](Oc2cc(O)cc(/C=C\c3ccc(O)cc3)c2)[C@H](O)[C@@H](O)[C@@H]1O [Z-PICEID]

SMILES | IC50 [1] | IC50 [2]
OC[C@H]1O[C@@H](Oc2ccc(/C=C/c3cc(O)cc(O)c3)cc2O)[C@H](O)[C@@H](O)[C@@H]1O [E-RESVERATROLOSIDE] | 100 µM | 1000 µM
OC[C@H]1O[C@@H](Oc2ccc(/C=C\c3cc(O)cc(O)c3)cc2O)[C@H](O)[C@@H](O)[C@@H]1O [Z-RESVERATROLOSIDE] | 150 µM | > 1000 µM
